According to ChEMBL document CHEMBL1155076, “Synthesis and pharmacological evaluation of novel gamma-aminobutyric acid type B (GABAB) receptor agonists as gastroesophageal reflux inhibitors” (J Med Chem, 2008):
pEC50, pKi: −log10 of the molar value.

Legend:
[1] = Displacement of [3H]GABA from GABABreceptor in rat brain synaptic membranes; format: cell membranes, Membrane
[2] = system: CHO-K1; test: Intrinsic activity at human recombinant GABAB receptor expressed in CHO-K1 cells assessed as inhibition of intracellular calcium release by FLIPR relative to GABA; format: cell-based
[3] = Agonist activity at human recombinant GABABreceptor expressed in CHO-K1 cells assessed as inhibition of intracellular calcium release by FLIPR; format: functional, cell-based
[4] = system: Mus musculus; test: Toxicity in sc dosed mouse assessed as subcutaneous dose producing 2 degC decrease in body temperature; format: organism-based; conditions: in vivo
[5] = species on record: Canis familiaris; test: Inhibition of transient lower esophageal sphincter relaxation in dog; format: functional; conditions: Canis lupus familiaris
[6] = Bioavailability in rat; format: ADME, organism-based; conditions: in vivo
[7] = Bioavailability in dog; format: ADME, organism-based, Canis lupus familiaris; conditions: in vivo

CP(=O)(O)CC(F)CN (stereo not given)
pKi [1]: 7.85 | Intrinsic activity [2]: 1 | pEC50 [3]: 7.64

NC[C@H](F)C[PH](=O)O
pKi [1]: 7.15 | Intrinsic activity [2]: 1 | pEC50 [3]: 6.60

CP(=O)(O)C[C@H](O)CN
pKi [1]: 6.08 | Intrinsic activity [2]: 1 | pEC50 [3]: 6.22

CP(=O)(O)CC(=O)CN
pKi [1]: 6.70 | Intrinsic activity [2]: 1 | pEC50 [3]: 6.57

NCCC[PH](=O)O
pKi [1]: 7.82 | Intrinsic activity [2]: 1 | pEC50 [3]: 7.72

CP(=O)(O)C[C@H](F)CN
pKi [1]: 8.37 | Intrinsic activity [2]: 1 | pEC50 [3]: 7.85

NCC(=O)C[PH](=O)O
pKi [1]: 7.32 | Intrinsic activity [2]: 1 | pEC50 [3]: 7.09

CP(=O)(O)C[C@@H](F)CN
pKi [1]: 6.32 | Intrinsic activity [2]: 1 | pEC50 [3]: 5.77

NCC(CC(=O)O)c1ccc(Cl)cc1 (stereo not given)
Intrinsic activity [2]: 1

NCC(O)C[PH](=O)O (stereo not given)
pKi [1]: 7.03 | Intrinsic activity [2]: 1 | pEC50 [3]: 6.66

NC[C@@H](F)C[PH](=O)O [LESOGABERAN]
pKi [1]: 8.29 | Intrinsic activity [2]: 1 | pEC50 [3]: 8.06

CP(=O)(O)CCCN
Intrinsic activity [2]: 1

CP(=O)(O)C[C@@H](O)CN
Activity [4]: 5.4 µmol/kg | ED50 [5]: 0.17 µmol/kg | pKi [1]: 6.74 | Intrinsic activity [2]: 1 | pEC50 [3]: 6.82

NCC(F)C[PH](=O)O (stereo not given)
pKi [1]: 8.00 | Intrinsic activity [2]: 1 | pEC50 [3]: 7.82

NC[C@@H](O)C[PH](=O)O
pKi [1]: 5.68 | Intrinsic activity [2]: 1 | pEC50 [3]: 5.96

NC[C@H](O)C[PH](=O)O
Activity [4]: > 8000 µmol/kg | ED50 [5]: 7 µmol/kg | pKi [1]: 7.30 | Intrinsic activity [2]: 1 | pEC50 [3]: 6.89 | bioavailability [6]: 78% | bioavailability [7]: 88%
